In patent publication US20220218667A1, “DUAL INHIBITORS OF SOLUBLE EPOXIDE HYDROLASE AND METHODS OF USE THEREOF” (OROX Biosciences, Inc., priority 2019, published 2022):
pIC50: −log10 of the molar value. Several values for one entry are separate records, joined by “and”; a condition that tells them apart may be missing. Identical values can stand only once. Like-named read-outs stand apart in the source and are kept apart here.

Experiments:
human sEH = biological target: T1, human sEH (Homo sapiens, UniProt P34913); assay: sEH inhibition IC50, fluorescent-based assay with purified recombinant sEH; format: biochemical
T1 sequence (P34913 1-555): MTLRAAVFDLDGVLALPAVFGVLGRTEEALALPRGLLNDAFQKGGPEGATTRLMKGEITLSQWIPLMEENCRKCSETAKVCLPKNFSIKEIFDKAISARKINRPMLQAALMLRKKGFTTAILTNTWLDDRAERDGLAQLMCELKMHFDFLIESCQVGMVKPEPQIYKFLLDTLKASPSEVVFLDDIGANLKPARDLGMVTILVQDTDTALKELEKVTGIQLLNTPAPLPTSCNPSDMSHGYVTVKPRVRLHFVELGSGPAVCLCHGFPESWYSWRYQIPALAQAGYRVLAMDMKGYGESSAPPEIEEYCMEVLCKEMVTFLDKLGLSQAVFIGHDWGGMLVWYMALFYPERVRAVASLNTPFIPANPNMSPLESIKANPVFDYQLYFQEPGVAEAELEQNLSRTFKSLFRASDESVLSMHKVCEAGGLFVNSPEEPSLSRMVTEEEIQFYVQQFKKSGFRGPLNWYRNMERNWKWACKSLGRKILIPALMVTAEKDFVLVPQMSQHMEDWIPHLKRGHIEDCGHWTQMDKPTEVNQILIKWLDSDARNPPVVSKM
Description: sEH inhibition IC50 values for the compounds presented herein can be assayed by a recombinant affinity assay using purified sEHs, from human, mouse or rat, in a fluorescent-based assay. In such an assay, enzymes, e.g., ˜1 nM human sEH, are incubated with a potential inhibitors for 5 min in 25 mM Bis-Tris/HCl buffer (200 μL; pH 7.0) at 30° C. before a substrate, e.g., cyano(2-methoxynaphthalen-6-yl)methyl trans-(3-phenyl-oxyran-2-yl)methyl carbonate, (CMNPC) is added ([S]final=5 μM).

[1] = test system: C57BL/6 mice, bleomycin-induced fibrotic lung injury; assay: Example 2: therapeutic treatment in bleomycin-induced idiopathic pulmonary fibrosis mouse model; format: in vivo; settings: OX1 60 mg/kg, Pirfenidone 100 mg/kg
Text: The purpose of this study is to induce fibrotic lung injury in mice via a single administration of a glycopeptide antibiotic, bleomycin, in order to evaluate the efficacy of dual sEH and COX-2 inhibitor OX-1 in treating and reducing the symptoms associated with idiopathic pulmonary fibrosis. Pirfenidone, standard of care for the treatment of idiopathic pulmonary fibrosis, was used as a reference compound.
Male C57BL/6 mice from Charles River Laboratories aging of 7-8 weeks and weighing around 18-22 g at the time of their enrollment were used in the study.
Doses of OX1 at 60 mg/kg, Pirfenidone at 100 mg/kg, and the disease inducer Bleomycin at 1.5 mg/kg were used. A dosing rate of 10 mL/kg (approximately 0.2 mL/mouse according to their body weight) of OX1 was administered orally once daily to the mice. The mice received OX1 at 60 mg/kg once daily. A dosing rate of 10 mL/kg (approximately 0.2 mL/mouse according to their body weight) of Pirfenidone solution was administered once daily to the mice of the groups receiving Pirfenidone orally at the dose of 100 mg/kg once daily. A single intratracheal instillation of approximately 50 μL (1.5 mg/kg with a dosing rate of 2.5 mL/kg in sterile 0.9% saline) of bleomycin solution was administered to all mice except the sham group on day 0. Animals in the Sham group received one intratracheal instillation of approximately 50 μL of 0.9% saline solution on Day 0 and returned to their respective cages.
Treatment with the vehicle or test articles were initiated and administered starting on day 7 to day 21 as scheduled and described in Table 1 above. All test articles, reference compound and vehicle were administered to animals orally once daily. Food and water were given ad libitum. Daily observations of the behavioral and general health status of the animals were done. Daily body weight was also measured.
Prior to physiological assessment, all mice were introduced to the plethysmograph chamber environment. After the acclimatization period, the functional respiratory parameters were assessed by the whole-body plethysmograph on Day 0 (before bleomycin instillation), 7, 14 and 21 post-bleomycin instillation. Each measurement was performed with a mouse placed alone in an unrestrained whole-body plethysmography chamber (Buxco Electronics Inc.) to measure respiratory functions. The functional respiratory parameters analyzed included; the respiratory rate, the PenH ([…]) and the inspiratory/expiratory time measurements.
On the surgery day (Day 21), the mice were anesthetized, instrumented and arterial blood oxygen saturation (SpO2) was recorded. Blood oxygen saturation was read off of the pulse oximeter (STARR Life Sciences MouseOx Plus system, Oakmont, Pa.) with the probe attached to the right thigh of the animal. The saturation values were measured in percentage (%). At the moment of the sacrifice, the mouse thoracic cavity was open to expose the lungs and all mice were euthanatized by exsanguination. The trachea was then connected to the cannula of a perfusion system. The left lung was clamped while 1.5 mL of cold PBS solution (3×500 μL) was injected by the trachea to perform a bronchoalveolar lavage fluid (BALF) on the right lobe of the lungs and was collected on ice for further analysis. The total cells count with cells differential, the cytokine levels including TNF-α, TGF-β, IL-4, IL-5 and IL-17a, the total protein content as well as the soluble collagen were assessed in the BALF samples. Once collected, 300 μL of the BALF was transferred in an EDTA tube, kept at 2-4° C. and shipped to Biovet Inc. for the total cells count with cells differential analysis. The remaining BALF sample was centrifuged at 1200 rpm for 10 minutes at 4° C. to remove cells. The supernatant was aliquots and frozen at−80° C. until analysis was performed. […]

[2] = test system: Human primary lung fibroblasts from IPF donors; assay: Fibroblast-to-Myofibroblast Transition (FMT) assay; format: cell-based; settings: for IC50: Homo sapiens, Primary lung fibroblast, 1.25 ng/ml TGF-b1
Description: OX1 was evaluated in a primary cell-based Fibroblast-to-Myofibroblast Transition (FMT) assay; an in vitro assay relevant to idiopathic pulmonary fibrosis (TPF). Human primary lung fibroblasts from three (3) IPF donors (IPF06, IPF07, and IPF08) were triggered using 1.25 ng/ml TGF-b1 to induce FMT, one hour after application of compounds. OX1 and Nintedanib (approved drug for TPF) were applied in […] in semi-log dilutions with the top concentration at […] to construct eight (8)-point concentration response curve (CRC) in biological duplicates (ie. on two (2) different cell plates at on (1) occasion). SB525334 was used at […] in 0.1% DMSO as a positive validation control. The readouts at 72 hours were high content analysis (HCA) for aSMA expression and DAPI staining for nuclear count as measurement of potential cytotoxic effects.

`NS(=O)(=O)c1ccc(-n2nc(CCCNC(=O)Nc3ccc(C(F)(F)F)cc3)cc2-c2ccccc2)cc1` [OX1, 4-(5-phenyl-3-{3-[3-(4-trifluoromethyl-phenyl)-ureido]-propyl}-pyrazol-1-yl)-benzenesulfonamide] was tested, and the pIC50 (human sEH) was 8.70, the “Eosinophils (cells)” value ([1]; BALF day 21, mean) was 580 cells and the “Macrophages (cells)” value ([1]; BALF day 21, mean) was 204879 cells. The “Soluble collagen” value ([1]; BALF day 21, mean) was 60.4 µg and 60.38 µg, the “Total BALF cytokines (pg) IL-4” value ([1]; BALF day 21, mean) was 0.09 pg and the “Total BALF cytokines (pg) IL-5” value ([1]; BALF day 21, mean) was 2.49 pg. For the same compound, the “Total BALF cytokines (pg) IL-6” value ([1]; BALF day 21, mean) was 9.50 pg, the “Total TGFβ” value ([1]; BALF day 21, mean) was 299.3 pg and 299.31 pg and the “Percent Survival (%)” value ([1]; BLM mice, oral once daily day 7 to 21) was 77.8%. For the same compound, the “Body weight changes from day 7 (%)” value ([1]; mean, BLM mice, oral once daily day 7 to 21) was 11.63%, the “Loss of Nuclei” value [2] was “Yes” and the IC50 ([2]; donor IPF06, readout at 72 hours, read-out: αSMA inhibition IC50 (μM), Patient Identifier IPF06) was 1 µM. The IC50 ([2]; donor IPF07, readout at 72 hours, read-out: αSMA inhibition IC50 (μM), Patient Identifier IPF07) was 1.3 µM, the IC50 ([2]; donor IPF08, readout at 72 hours, read-out: αSMA inhibition IC50 (μM), Patient Identifier IPF08) was 1 µM and the IC50 ([2]; mean of three IPF donors, 72 hours, read-out: αSMA inhibition IC50 (μM), Mean) was 1.1 µM.
